Experimental data published in ChEMBL document CHEMBL1201862, “PubChem BioAssay data set” (2004).
Activity calls are given as the source filed them.

Tests used:
Orexin receptor type 2 [1] = target: T1, Orexin receptor type 2 (Homo sapiens, UniProt O43614); assay: Counterscreen assay for antagonists of the orexin 1 receptor (OX1R; HCRTR1): Fluorescence-based cell-based dose response assay for antagonists of the orexin 2 receptor (OX2R; HCRTR2), run by assay provider.; assay type: functional
T1 sequence (O43614 whole entry): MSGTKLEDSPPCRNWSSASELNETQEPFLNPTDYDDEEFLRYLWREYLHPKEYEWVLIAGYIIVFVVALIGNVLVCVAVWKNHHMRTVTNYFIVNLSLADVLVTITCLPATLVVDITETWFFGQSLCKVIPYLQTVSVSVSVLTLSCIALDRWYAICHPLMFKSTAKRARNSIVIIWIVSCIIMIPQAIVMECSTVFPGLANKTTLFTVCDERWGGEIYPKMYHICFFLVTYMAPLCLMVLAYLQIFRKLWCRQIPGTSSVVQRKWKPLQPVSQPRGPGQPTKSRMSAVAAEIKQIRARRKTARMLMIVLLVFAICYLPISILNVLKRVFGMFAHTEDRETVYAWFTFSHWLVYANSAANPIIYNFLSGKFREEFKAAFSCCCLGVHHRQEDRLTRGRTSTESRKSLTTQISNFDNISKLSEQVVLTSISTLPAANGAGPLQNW

[2] = target: T2, Orexin/Hypocretin receptor type 1 (Homo sapiens, UniProt O43613); assay: Homogeneous Time Resolved Fluorescence (HTRF)-based cell-based high throughput dose response assay for antagonists of the orexin 1 receptor (OX1R; HCRTR1). [Related pubchem assays (depositor defined):AID434989, AID435008, AID463079, AID485270, AID492963, AID492964, AID492965, AID493232, AID504717, AID504718]; assay type: functional
T2 sequence (O43613 whole entry): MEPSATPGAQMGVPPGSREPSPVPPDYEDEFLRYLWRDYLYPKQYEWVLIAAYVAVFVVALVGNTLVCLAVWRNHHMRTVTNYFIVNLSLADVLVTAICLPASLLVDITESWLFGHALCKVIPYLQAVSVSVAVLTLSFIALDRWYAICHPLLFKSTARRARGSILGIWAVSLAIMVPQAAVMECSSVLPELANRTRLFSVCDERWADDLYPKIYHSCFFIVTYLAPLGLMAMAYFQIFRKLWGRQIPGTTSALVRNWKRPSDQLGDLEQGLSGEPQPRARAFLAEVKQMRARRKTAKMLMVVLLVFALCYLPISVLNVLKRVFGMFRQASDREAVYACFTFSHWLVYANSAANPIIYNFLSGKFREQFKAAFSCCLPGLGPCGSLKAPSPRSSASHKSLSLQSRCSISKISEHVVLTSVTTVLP

CHO-K1 = assay: (§1) Counterscreen for antagonists of the orexin 1 receptor (OX1R; HCRTR1): Homogeneous time resolved fluorescence (HTRF)-based cell-based dose response assay to identify antagonists of the parental CHO-K1 cell line. [Related pubchem assays (depositor defined):AID434989, AID435008, AID463079, AID485270, AID492963, AID492964, AID492965, AID493232, AID504699, AID504701]; assay type: functional; conditions: Cricetulus griseus
[3] = as §1, with “Fluorescence-based” for “Homogeneous time resolved fluorescence (HTRF)-based”, “cell-based high throughput” for “cell-based”, “CHO” for “CHO-K1”; assay type: functional
Kallikrein-7 = Kallikrein-7 (Homo sapiens, UniProt P49862); assay: Fluorescence Intensity-based biochemical primary high throughput dose response assay to identify activators of kallikrein-7 (K7) zymogen.
Orexin receptor type 2 [4] = target: T1, Orexin receptor type 2; assay: Counterscreen assay for antagonists of the orexin 1 receptor (OX1R; HCRTR1): Homogeneous Time Resolved Fluorescence (HTRF)-based cell-based dose response assay for antagonists of the orexin 2 receptor (OX2R; HCRTR2), run by assay provider.; assay type: functional
[5] = target: T2, Orexin/Hypocretin receptor type 1; assay: Fluorescence-based cell-based high throughput dose response assay for antagonists of the orexin 1 receptor (OX1R; HCRTR1). [Related pubchem assays (depositor defined):AID434989, AID435008, AID463079, AID485270, AID492963, AID492964, AID492965, AID493232, AID504717, AID504718]; assay type: functional
[6] = control 3'UTR Renilla luciferase suppression, dose response, counter-screen for Shn3 inhibitor project, cell-based, Clone20-Shn3RL, cherry-picked (AID 624133); assay type: functional
[7] = inhibitors of control Renilla luciferase reporter, dose response, counter-screen for Shn3 3'UTR targeting project, Clone20-Shn3RL cells, dual-Glo, cherry-pick, set 2 (AID 720724); assay type: functional, cell-based; conditions: Dual-Go Shn3RL
[8] = reduction of Shn3 3'UTR firefly luciferase signal, dose response, Schnurri-3 inhibitor project, cell-based, Clone20 osteoblasts, cherry-pick, set 2 (AID 720490); assay type: functional;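 further: actives lower the luminescence signal as inhibitors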
[9] = Shn3 3'UTR reporter inhibitors, dose response, cell-based, Clone20 osteoblasts, firefly luciferase, cherry-picked (AID 624132); assay type: functional;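 further: firefly luciferase luminescence from reporter carrying the Shn3 3'UTR in osteoblasts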
[10] = Cytotoxicity screening for potential Inhibitors of Bacterial Capsule Biogenesis (4).; assay type: functional
[11] = HepG2 cell cytotoxicity, dose response, cytotoxicity control, ATP luminescence, cherry-pick, set 6 (AID 1053125); assay type: functional, cell-based
Major prion protein = Major prion protein (Homo sapiens, UniProt P04156); assay type: functional, cell-based
Fatty acid synthase = Fatty acid synthase (Homo sapiens, UniProt P49327); assay: FAS thioesterase domain inhibitors, SAR follow-up, biochemical, endpoint fluorescence intensity, powder samples (AID 652164); assay type: functional
[12] = HeLa 4N DNA content increase, dose response, cell-based, IC50 (AID 1117351); assay type: functional
[13] = target: T3, COUP transcription factor 2 (Homo sapiens, UniProt P24468); assay: Luminescence-based cell-based high throughput dose response assay to identify inhibitors of COUP-TFII (NR2F2).; assay type: functional;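 further: HEK293 cells transiently cotransfected with COUP-TFII expression vector and reporter; luciferase reporter luminescence driven by COUP-TFII from the pX2-168 reporter plasmid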
T3 sequence (P24468 whole entry): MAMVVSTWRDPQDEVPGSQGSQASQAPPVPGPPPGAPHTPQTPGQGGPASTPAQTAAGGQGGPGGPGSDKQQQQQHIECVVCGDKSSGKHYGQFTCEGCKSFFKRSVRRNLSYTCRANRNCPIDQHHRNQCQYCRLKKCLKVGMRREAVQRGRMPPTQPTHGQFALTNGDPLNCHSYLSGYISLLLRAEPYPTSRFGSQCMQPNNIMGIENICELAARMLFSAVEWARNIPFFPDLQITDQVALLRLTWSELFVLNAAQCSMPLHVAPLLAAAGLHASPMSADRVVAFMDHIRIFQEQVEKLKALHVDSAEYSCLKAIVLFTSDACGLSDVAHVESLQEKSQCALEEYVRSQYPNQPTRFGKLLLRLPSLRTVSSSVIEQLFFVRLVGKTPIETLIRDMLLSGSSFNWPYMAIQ

[14] = target: Heat shock protein HSP 90-alpha (Homo sapiens, UniProt P07900); assay type: functional, organism-based
[15] = HeLa 2N DNA content increase, dose response, cell-based, IC50 (AID 1117349); assay type: functional
[16] = inhibitors of PGC1a acetylation in cells, dose response, cell-based, cherry-picked samples (AID 720514); assay type: functional;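 further: potency may reflect raised or lowered acetylation signal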
[17] = HEK293 cell cytotoxicity, dose response, cytotoxicity control, plate reader, cherry-picked samples (AID 743446); assay type: functional, cell-based
[18] = LGR2 antagonists, dose response, cell-based, HEK293, CRE-luciferase reporter, cherry pick (AID 743342); assay type: functional
[19] = MC4R antagonists, dose response, counter-screen for LGR2 antagonist project, cell-based, plate reader, cherry pick (AID 743444); assay type: functional;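 further: transfected HEK 293 cells stimulated with alpha-MSH peptide; potency of inhibitors of the alpha-MSH evoked signal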
[20] = HepG2 cell cytotoxicity, dose response, cytotoxicity control, plate reader, cherry-pick, antagonist series (AID 743416); assay type: functional, cell-based
[21] = A549 cell cytotoxicity, dose response, cytotoxicity control, plate reader, cherry-pick, antagonist series (AID 743412); assay type: functional, cell-based

O=C(OC1CCOC1=O)c1ccc(-c2nc3ccccc3s2)s1 (stereo not drawn)
IC50 (Orexin receptor type 2 [1]): > 88.8 µM (inactive) | IC50 [2]: 1.98 µM (active) | IC50 (CHO-K1): 29.9 µM (inactive) | IC50 [3]: > 49.8 µM (inactive) | EC50 (Kallikrein-7): > 69.5 µM (inactive) | IC50 (Orexin receptor type 2 [4]): 11.4 µM (inactive) | IC50 [5]: 9.49 µM (active)

COC(=O)C1=C(c2ccc(OCc3ccccc3)cc2)C[C@@H]2CC[C@H]1N2C(=O)NCCCCc1ccccc1
AC50 [6]: 25.6 µM (active) | AC50 [7]: 35.9 µM (active) | AC50 [8]: 10.3 µM (active) | AC50 [9]: 2.8 µM (active)

Cc1nc2ccc(C(=O)Nc3ccncc3)cc2s1
CC50 [10]: > 300 µM (active)

Cc1cccn2c(=O)c3cc(C#N)/c(=N\C(=O)c4cccs4)n(CC(C)C)c3nc12
AC50 [11]: > 52 µM (inactive)

O=C(O)c1ccccc1C(=O)c1cccc2c(Br)cccc12
IC50 (cells): > 138 µM (inactive) | IC50 (Major prion protein): 1.57 µM (active)

O=C(Nc1nc(-c2ccc(S(=O)(=O)N3CCOCC3)cc2)cs1)C1CCCC1
IC50 (Fatty acid synthase): > 80 µM (inactive)

C[C@@H]1C[C@@H]([C@H](O)CC2CC(=O)NC(=O)C2)C(=O)[C@@H](C)C1 [CYCLOHEXIMIDE]
IC50 [12]: > 10 µM (inactive) | AC50 [6]: 0.695 µM (active) | AC50 [9]: 0.345 µM (active) | IC50 [13]: 1.32 µM (active) | AC50 [14]: < 0.195 µM (active) | IC50 [15]: > 10 µM (inactive) | AC50 [16]: 2.23 µM (active)

C[C@H]1CCCCO[C@@H](CN(C)S(=O)(=O)c2ccc(Cl)cc2)[C@@H](C)CN([C@@H](C)CO)C(=O)c2cc(NC(=O)NC3CCCCC3)ccc2O1
AC50 [17]: > 52 µM (inactive) | AC50 [18]: 32.4 µM (active) | AC50 [19]: 30.1 µM (active) | AC50 [20]: > 52 µM (inactive) | AC50 [21]: 20.1 µM (active)
